Data on 22 compounds can be found in article PMC10353549 (ACS Pharmacology & Translational Science, 2023).

Values joined by “and” are separate entries in the source; they are usually repeats but may differ in a detail not shown here. Identical values can stand only once. Like-named read-outs stand apart in the source and are kept apart here. Marks after values point to notes of the source that are not given here. Where a SMILES comes first, the peptide text is derived from it. [ ]: non-standard residue; d: D form. The star is where a group is joined. 1Nal = N[C@@H](Cc1cccc2ccccc12)C(=O)O; Nicotinoyl(6-F) = O=C(c1ccc(F)nc1)*; Cha = N[C@@H](CC1CCCCC1)C(=O)O; NMeS = CN[C@@H](CO)C(=O)O; hSer = N[C@@H](CCO)C(=O)O; Nle = CCCC[C@H](N)C(=O)O; Octanoyl = CCCCCCCC(=O)*; Abu = CC[C@H](N)C(=O)O; Dap = NC[C@H](N)C(=O)O; Inp = O=C(O)C1CCNCC1 A value given as a limit tells only on which side of the number the result lay.

The term IC50 denotes the concentration at which inhibition is half-maximal. The half-life is how long it takes for the measured level to halve. Low readings indicate rapid decline, high ones slow decline. In general, EC50 refers to the concentration that produces a half-maximal response. A lower EC50 goes with higher potency in that assay. In general, fraction remaining refers to the share of the starting amount still present when the sample was taken. Low readings indicate more turnover, high ones less turnover.

Series [1] concerns the target growth hormone secretagogue receptor 1a, eYFP tagged (GHSR-eYFP) (UniProt Q92847). Kind of series: radioligand binding.
Series [2] can be described thus: Human liver S9 fraction stability. Particulars: for half-life at 3 μM: human, pooled human liver S9 fraction. In kind it is in vitro ADME.
Series [3] has as its target T1, growth hormone secretagogue receptor 1a (GHSR) (Homo sapiens, UniProt Q92847). Kind of series: biochemical.
A short description of series [4]: human serum from human male AB plasma. The following applies: 37 °C, up to 24 h.
Series [5] is described as follows: Human serum stability. In kind it is in vitro ADME.
Series [6] can be described thus: Chemical stability in buffer. The class given is physicochemical. The following applies: for chemical stability in buffer: 37 °C, over 24 h.
In series [7] the target is GHSR (Homo sapiens, UniProt Q92847). Description: cell-based.
Sequence of GHSR (Q92847 whole entry, species assumed): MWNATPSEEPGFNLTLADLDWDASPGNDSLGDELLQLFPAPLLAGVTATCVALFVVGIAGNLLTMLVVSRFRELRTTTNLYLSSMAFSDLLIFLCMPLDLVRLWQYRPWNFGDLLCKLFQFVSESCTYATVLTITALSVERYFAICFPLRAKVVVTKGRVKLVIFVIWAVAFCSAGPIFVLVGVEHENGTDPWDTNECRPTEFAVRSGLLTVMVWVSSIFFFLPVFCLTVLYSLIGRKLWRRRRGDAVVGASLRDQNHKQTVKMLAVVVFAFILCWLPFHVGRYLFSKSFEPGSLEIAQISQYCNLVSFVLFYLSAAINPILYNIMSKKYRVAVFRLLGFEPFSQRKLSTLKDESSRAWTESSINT
The target in series [8] is T1, growth hormone secretagogue receptor 1a (GHSR). Particulars: read-out: IC50 (GHSR affinity); previous work; cited from earlier work.
Target sequence in this assay (Q92847 whole entry, species assumed): as above
For series [9] the following is noted: human serum; cited from earlier work.
Where [10] appears, read: pH 7.4, S9 t1/2, pooled human liver S9 fraction 1 mg/mL, peptide 3 μM, 37 °C, over 4 h.
[11] abbreviates: human liver S9 fraction, over 4 h.

Sequence of growth hormone secretagogue receptor 1a, eYFP tagged (GHSR-eYFP) (Q92847 whole entry): as the sequence (Q92847 whole entry, species assumed) above

In the case of “ghrelin(1–8) analogue 23, Inp-S-Dpr(6-FN)-1Nal-β-homoL-SPT-NH2 (peptide)”, the concentration for half-maximal inhibition (IC50) in [1] was found to be 2.11 nM.

Consider `CC(C)C[C@H](NC(=O)[C@H](Cc1cccc2ccccc12)NC(=O)[C@H](CNC(=O)c1ccc(F)nc1)NC(=O)[C@H](CO)NC(=O)C1CCNCC1)C(=O)N[C@@H](CC(N)=O)C(=O)N1CCC[C@H]1C(=O)N[C@H](C(N)=O)[C@@H](C)O` [compound 18, Inp-S-Dpr(6-FN)-1Nal-LNPT-NH2] (H-[Inp]S[Dap](Nicotinoyl(6-F))[1Nal]LNPT-NH2), for which the half-life at 3 μM in series [2] (setting [10]) is over 4 h. This compound returned a 50% inhibitory concentration (IC50) in series [3] of 1.9 ± 0.56 nM.

For Inp-S-Dpr(6-FN)-1Nal-LSPT-NH2, in series [4], the cleaved bond entry was “Leu5-Ser6, first_seen, 30 min”; the fragment found is 4; 1Nal-L-OH and 5; Inp-S-Dpr(6-FNA)-OH.

As to `CCCCCCCC(=O)NC[C@H](NC(=O)[C@H](CO)NC(=O)CN)C(=O)N[C@@H](Cc1ccccc1)C(=O)N[C@@H](CC(C)C)C(=O)N[C@@H](CO)C(=O)N1CCC[C@H]1C(=O)N[C@@H](CCC(=O)O)C(=O)O` [compound 2, [Dpr^3(n-octanoyl)]ghrelin(1–8)] (H-GS[Dap](Octanoyl)FLSPE-OH), the “Serum t1/2” value in series [5] (25% human serum in PBS pH 7.4, 37 °C, peptide 1 mM, over 24 h) came to 2.0 h. Also, the “time after which peptide was completely degraded in human serum” value in [5] (human serum, 37 °C) came out at 6 h. Further, in [2] (pH 7.4), the half-life at 3 μM is 0.57 h. Also, in series [6], the “chemical stability in buffer” value was “chemically stable”.

In series [1], “ghrelin(1–8) analogue 11, Inp-S-Dpr(6-FN)-1Nal-lsPT-NH2 (peptide)” showed an IC50 of 11.5 nM.

Consider `CC(C)C[C@H](NC(=O)[C@H](Cc1cccc2ccccc12)NC(=O)[C@H](CNC(=O)c1ccc(F)nc1)NC(=O)[C@H](CO)NC(=O)C1CCNCC1)C(=O)N[C@H](C(=O)N1CCC[C@H]1C(=O)N[C@H](C(N)=O)[C@@H](C)O)[C@@H](C)O` [compound 16, Inp-S-Dpr(6-FN)-1Nal-LTPT-NH2] (H-[Inp]S[Dap](Nicotinoyl(6-F))[1Nal]LTPT-NH2), for which the half-life at 3 μM in series [2] (setting [10]) is 1.25 h. This compound displayed a concentration for half-maximal inhibition (IC50) in [3] of 0.62 ± 0.1 nM.

acylated human ghrelin(1–28) (ligand) came in with an IC50 in series [1] of 2.48 nM.

The compound `C[C@@H](O)[C@H](NC(=O)[C@@H]1CCCN1C(=O)[C@H](CO)NC(=O)[C@H](CC1CCCCC1)NC(=O)[C@H](Cc1cccc2ccccc12)NC(=O)[C@H](CNC(=O)c1ccc(F)nc1)NC(=O)[C@H](CO)NC(=O)C1CCNCC1)C(N)=O` [compound 14, Inp-S-Dpr(6-FN)-1Nal-Cha-SPT-NH2] (H-[Inp]S[Dap](Nicotinoyl(6-F))[1Nal][Cha]SPT-NH2) had a half-life at 3 μM in series [2] (setting [10]) of 1.18 h. Besides, in series [3], the IC50 turned out to be 1.88 ± 0.67 nM.

For the compound Inp-S-Dpr(6-FN)-1Nal-L-Dpr-PT-NH2, the not cleaved entry in series [4] is recorded as “full stability over 24 h”.

Consider `CC(C)C[C@H](NC(=O)[C@H](Cc1cccc2ccccc12)NC(=O)[C@H](CNC(=O)c1ccc(F)nc1)NC(=O)[C@H](CO)NC(=O)C1CCNCC1)C(=O)N[C@@H](CCC(N)=O)C(=O)N1CCC[C@H]1C(=O)N[C@H](C(N)=O)[C@@H](C)O` [compound 19, Inp-S-Dpr(6-FN)-1Nal-LQPT-NH2] (H-[Inp]S[Dap](Nicotinoyl(6-F))[1Nal]LQPT-NH2), for which, in series [2] (setting [10]), the half-life at 3 μM was 2.03 h. Besides, the concentration for half-maximal inhibition (IC50) in series [3] came out at 1.21 ± 0.12 nM.

For the compound `CC(C)C[C@H](NC(=O)[C@H](Cc1cccc2ccccc12)NC(=O)[C@H](CNC(=O)c1ccc(F)nc1)NC(=O)[C@H](CO)NC(=O)C1CCNCC1)C(=O)N[C@@H](CS)C(=O)N1CCC[C@H]1C(=O)N[C@H](C(N)=O)[C@@H](C)O` [compound 15, Inp-S-Dpr(6-FN)-1Nal-LCPT-NH2] (H-[Inp]S[Dap](Nicotinoyl(6-F))[1Nal]LCPT-NH2), in series [2] (setting [10]), the half-life at 3 μM is 0.95 h. Moreover, the IC50 in series [3] is 7.15 ± 0.18 nM.

On to `CC[C@H](NC(=O)[C@H](CC(C)C)NC(=O)[C@H](Cc1cccc2ccccc12)NC(=O)[C@H](CNC(=O)c1ccc(F)nc1)NC(=O)[C@H](CO)NC(=O)C1CCNCC1)C(=O)N1CCC[C@H]1C(=O)N[C@H](C(N)=O)[C@@H](C)O` [compound 20, Inp-S-Dpr(6-FN)-1Nal-L-Abu-PT-NH2] (H-[Inp]S[Dap](Nicotinoyl(6-F))[1Nal]L[Abu]PT-NH2), for which, in [2] (setting [10]), the half-life at 3 μM was 0.46 h. This compound gave an EC50 in [7] of 30 nM. The same compound displayed a half-maximal inhibitory concentration (IC50) in series [3] of 2.54 ± 0.65 nM.

Turning to `CCCC[C@H](NC(=O)[C@H](Cc1cccc2ccccc12)NC(=O)[C@H](CNC(=O)c1ccc(F)nc1)NC(=O)[C@H](CO)NC(=O)C1CCNCC1)C(=O)N[C@@H](CO)C(=O)N1CCC[C@H]1C(=O)N[C@H](C(N)=O)[C@@H](C)O` [compound 13, Inp-S-Dpr(6-FN)-1Nal-Nle-SPT-NH2] (H-[Inp]S[Dap](Nicotinoyl(6-F))[1Nal][Nle]SPT-NH2), in series [2] (setting [10]), the half-life at 3 μM was 0.55 h. In addition, the IC50 in series [3] worked out at 1.5 ± 0.27 nM.

`CC(C)C[C@H](NC(=O)[C@H](Cc1cccc2ccccc12)NC(=O)[C@H](CNC(=O)c1ccc(F)nc1)NC(=O)[C@H](CO)NC(=O)C1CCNCC1)C(=O)N[C@H](CO)C(=O)N1CCC[C@H]1C(=O)N[C@H](C(N)=O)[C@@H](C)O` [compound 10, Inp-S-Dpr(6-FN)-1Nal-LsPT-NH2] (H-[Inp]S[Dap](Nicotinoyl(6-F))[1Nal]L[dS]PT-NH2) displayed a half-life at 3 μM in series [2] (setting [10]) of over 4 h. In series [3], this compound displayed an IC50 of 3.55 ± 0.25 nM.

`CC(C)C[C@H](NC(=O)[C@H](Cc1cccc2ccccc12)NC(=O)[C@H](CNC(=O)c1ccc(F)nc1)NC(=O)[C@H](CO)NC(=O)C1CCNCC1)C(=O)N[C@@H](C(=O)N1CCC[C@H]1C(=O)N[C@H](C(N)=O)[C@@H](C)O)[C@H](C)O` [compound 12, Inp-S-Dpr(6-FN)-1Nal-LtPT-NH2] (H-[Inp]S[Dap](Nicotinoyl(6-F))[1Nal]L[dT]PT-NH2) gave a half-life at 3 μM in series [2] (setting [10]) of over 4 h. In addition, in [3], it took 2.52 ± 0.32 nM to reach half-maximal inhibition (IC50).

In turn, `CC(C)C[C@H](NC(=O)[C@H](Cc1cccc2ccccc12)NC(=O)[C@H](CNC(=O)c1ccc(F)nc1)NC(=O)[C@H](CO)NC(=O)C1CCNCC1)C(=O)N[C@@H](CCO)C(=O)N1CCC[C@H]1C(=O)N[C@H](C(N)=O)[C@@H](C)O` [compound 17, Inp-S-Dpr(6-FN)-1Nal-L-Hse-PT-NH2] (H-[Inp]S[Dap](Nicotinoyl(6-F))[1Nal]L[hSer]PT-NH2) showed a half-life at 3 μM in series [2] (setting [10]) of 1.4 h. Half-maximal inhibition in series [3] (IC50) was put at 1.43 ± 0.08 nM.

For the compound Inp-S-Dpr(6-FN)-1Nal-L-S(N-Me)-PT-NH2, the not cleaved result in series [4] is given as “stable; serum t1/2 >24 h”.

For `CC(C)C[C@@H](NC(=O)[C@H](Cc1cccc2ccccc12)NC(=O)[C@H](CNC(=O)c1ccc(F)nc1)NC(=O)[C@H](CO)NC(=O)C1CCNCC1)C(=O)N[C@@H](CO)C(=O)N1CCC[C@H]1C(=O)N[C@H](C(N)=O)[C@@H](C)O` [compound 9, Inp-S-Dpr(6-FN)-1Nal-lSPT-NH2] (H-[Inp]S[Dap](Nicotinoyl(6-F))[1Nal][dL]SPT-NH2), in series [5] (human serum, over 24 h), the “stability in human serum” value is “completely stable”. Further, the “stability in human liver S9 fraction” value in series [2] (setting [11]) was “completely stable”. The same compound gave a half-life at 3 μM in series [2] (setting [10]) of over 4 h. Besides, the IC50 in series [3] was found to be 56.5 ± 6.5 nM.

As to `CC(C)C[C@H](NC(=O)[C@H](Cc1cccc2ccccc12)NC(=O)[C@H](CNC(=O)c1ccc(F)nc1)NC(=O)[C@H](CO)NC(=O)C1CCNCC1)C(=O)N[C@@H](CO)C(=O)N1CCC[C@H]1C(=O)N[C@H](C(N)=O)[C@@H](C)O` [compound 1, [Inp^1,Dpr^3(6-FN),1Nal^4,Thr^8]ghrelin(1–8) amide] (H-[Inp]S[Dap](Nicotinoyl(6-F))[1Nal]LSPT-NH2), the “time after which peptide was completely degraded in human liver S9 fraction” value in [2] (human liver S9 fraction, 37 °C) is reported as 4 h. The compound further showed a half-life at 3 μM in series [2] (setting [10]) of 1.1 h. Besides, the “S9 t1/2” value in [2] (pooled human liver S9 fraction 1 mg/mL, peptide 3 μM, 37 °C, over 4 h) is recorded as 1.08 h. Moreover, the “chemical stability in buffer” value in series [6] is “chemically stable”. The compound also came in with an amount remaining at 24 h, 1 mM in series [6] (phosphate-buffered saline, pH 7.4) of 100%. For the same compound, the IC50 in series [8] was 0.11 nM; in [3], 0.09 nM. For the same compound, the “Serum t1/2” value in series [9] was 4.7 ^a h. Besides, the concentration for a half-maximal effect (EC50) in [7] amounted to 8 nM.

As for “ghrelin(1–8) analogue 21, Inp-S-Dpr(6-FN)-1Nal-L-Dpr-PT-NH2 (peptide)”, the IC50 in series [1] was 0.32 nM.

Take Inp-S-Dpr(6-FN)-1Nal-lSPT-NH2: the not cleaved entry in [4] is recorded as “completely stable; serum t1/2 >24 h”.

`CC(C)C[C@H](NC(=O)[C@H](Cc1cccc2ccccc12)NC(=O)[C@H](CNC(=O)c1ccc(F)nc1)NC(=O)[C@H](CO)NC(=O)C1CCNCC1)C(=O)N(C)[C@@H](CO)C(=O)N1CCC[C@H]1C(=O)N[C@H](C(N)=O)[C@@H](C)O` [compound 22, Inp-S-Dpr(6-FN)-1Nal-L-S(N-Me)-PT-NH2] (H-[Inp]S[Dap](Nicotinoyl(6-F))[1Nal]L[NMeS]PT-NH2): in series [5] (human serum, over 24 h), the “stability in human serum” value is “stable”. Moreover, in [2] (setting [11]), the “stability in human liver S9 fraction” value is “stable”. The half-life at 3 μM in [2] (setting [10]) is over 4 h. Further, the EC50 in series [7] was 119 nM. Moreover, the midpoint of inhibition in series [3], the IC50, lay at 1.32 ± 0.58 nM.
